Results from paper PMC12444472, “BCI inhibits MKP3 by targeting the kinase-binding domain and disrupting ERK2 interaction” (The Journal of Biological Chemistry, 2025).

Legend:
Assay in all cases: NMR titration (1H-15N HSQC)
Assay type in all cases: binding
MKP1^KBD = molecular target: T1, MKP1^KBD (Homo sapiens, UniProt P28562); details: molar ratio 1:15
T1 construct: MKP1(1–141) (MKP1^KBD); made in house; host or cells: Escherichia coli BL21(DE3)
T1 sequence (P28562 1-141): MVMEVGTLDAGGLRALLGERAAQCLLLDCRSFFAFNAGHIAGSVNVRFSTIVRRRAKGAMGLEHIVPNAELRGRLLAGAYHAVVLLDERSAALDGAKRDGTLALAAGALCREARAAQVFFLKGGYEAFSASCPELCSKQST
Procedure: (§1) NMR data were collected at 298 K on a Bruker AVANCE NEO 800 MHz spectrometer (Bruker BioSpin) equipped with a ^1H&^19F/^13C/^15N TCI cryogenic probe. Backbone resonances of MKP3^1–154 were assigned using 2D/3D experiments, including 2D ^1H–^15N HSQC and 3D ^1H/^13C/^15N CBCA(CO)NH, HNCACB, HNCO, and HN(CA)CO, performed with uniformly ^13C/^15N labeled protein at a final concentration of 0.39 mM in buffer containing 20 mM imidazole (pH 6.0), 100 mM NaCl, 5 mM DTT, 0.5 mM EDTA, and 5% (v/v) D2O. The buffer used for backbone resonance assignment was similar to that used for the previously reported NMR structure ([15]). NMR titration experiments were conducted using ^15N-labeled MKP3^1–154, MKP3^14–152, MKP3^204–350, MKP1^1–141, MKP2^5–159, MKPX^1–140, MKP4^1–143, and MKP5^139–287. 2D ^1H–^15N HSQC spectra of ^15N-labeled MKPs^KBD (0.1 mM) were acquired in the absence and presence of BCI (50 mM stock in DMSO-d6) in buffer containing 50 mM KH2PO4–K2HPO4 (pH 7.2), 100 mM KCl, 1 mM Tris(2-carboxyethyl)phosphine hydrochloride, 1 mM EDTA, and 5% (v/v) D2O. Control experiments, in which only the corresponding volume of DMSO-d6 was added to ^15N-labeled proteins, were performed to exclude possible effects of DMSO on the interactions. For ^15N T1 measurements, the relaxation delay times were set to 20 (×2), 100, 200 (×2), 300, 400, 600 (×2), 800, 1200, and 1600 ms. For ^15N T2 measurements, the delay times were 7.84, 15.68 (×2), 23.52, 31.36 (×2), 39.2, 47.04 (×2), 54.88, 62.72, 78.4, 94.08, and 109.76 ms. The relaxation rates R1 (1/T1) and R2 (1/T2) for each residue were determined by fitting the peak intensities from spectra acquired at the various delay times to a single-exponential decay function: I/I0 = exp(-R1,2·t), where I0 is the intensity at t = 0, and I is the intensity at a delay time t. Repeated measurements were used to estimate the uncertainties of the R1 and R2 values via Monte Carlo analysis. Heteronuclear steady-state ^1H–^15N NOE experiments were acquired in an interleaved mode, with 5 s of ^1H saturation for NOE build-up and 5 s of relaxation delay for the reference spectra. Repeated experiments were performed to estimate uncertainties, and the propagated error for each NOE value was calculated using the following equation: σNOE = NOE × ((σsat/Isat)^2+(σunsat/Iunsat)^2)^1/2, where σsat and σunsat are the SDs of the saturated and unsaturated spectra, respectively, and Isat and Iunsat are the corresponding signal intensities. NMR data were processed using TopSpin 4.1.1 (Bruker BioSpin) or NMRPipe ([54]) and analyzed with POKY ([55]).

MKP2^KBD = molecular target: T2, MKP2^KBD (Homo sapiens, UniProt Q13115); details: molar ratio to BCI 1:13
T2 construct: MKP2(5–159) (MKP2^KBD); made in house; host or cells: Escherichia coli BL21(DE3)
T2 sequence (Q13115 5-159): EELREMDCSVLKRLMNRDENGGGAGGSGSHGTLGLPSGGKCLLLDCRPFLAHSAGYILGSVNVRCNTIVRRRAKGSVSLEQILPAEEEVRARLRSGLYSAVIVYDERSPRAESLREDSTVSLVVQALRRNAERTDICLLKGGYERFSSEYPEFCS
Procedure: as §1

MKP3^CD = molecular target: T3, MKP3^CD (Homo sapiens, UniProt Q16828)
T3 construct: ^15N-labeled MKP3^1–154, MKP3^14–152, MKP3^204–350; made in house; host or cells: Escherichia coli BL21(DE3)
T3 sequence (Q16828 204-350): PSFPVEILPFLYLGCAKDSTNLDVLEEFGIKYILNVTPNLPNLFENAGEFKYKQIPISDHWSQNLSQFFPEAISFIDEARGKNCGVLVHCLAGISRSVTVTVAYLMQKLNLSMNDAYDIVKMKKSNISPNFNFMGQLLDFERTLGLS
Procedure: as §1

MKP4^KBD = molecular target: T4, MKP4^KBD (Homo sapiens, UniProt Q99956); details: molar ratio 1:15
T4 construct: MKP2^5–159, MKPX^1–140, MKP4^1–143, and MKP5^139–287; made in house; host or cells: Escherichia coli BL21(DE3)
T4 sequence (Q99956 1-143): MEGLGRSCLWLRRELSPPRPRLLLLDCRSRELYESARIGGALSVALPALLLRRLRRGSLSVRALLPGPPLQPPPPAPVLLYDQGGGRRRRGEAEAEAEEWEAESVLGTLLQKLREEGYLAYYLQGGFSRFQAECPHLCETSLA
Procedure: as §1

MKP5^KBD = molecular target: T5, MKP5^KBD (Homo sapiens, UniProt Q9Y6W6); details: molar ratio 1:5
T5 construct: MKP5(139–287) (MKP5^KBD); made in house; host or cells: Escherichia coli BL21(DE3)
T5 sequence (Q9Y6W6 139-287): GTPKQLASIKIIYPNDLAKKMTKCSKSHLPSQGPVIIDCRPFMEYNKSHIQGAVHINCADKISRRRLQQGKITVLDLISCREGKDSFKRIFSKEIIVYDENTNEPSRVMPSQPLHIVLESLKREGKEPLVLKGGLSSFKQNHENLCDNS
Procedure: as §1

MKPX^KBD = molecular target: T6, MKPX^KBD (Homo sapiens, UniProt Q16829); details: molar ratio 1:2
T6 construct: MKPX(1–140) (MKPX^KBD); made in house; host or cells: Escherichia coli BL21(DE3)
T6 sequence (Q16829 1-140 isoform Q16829-2): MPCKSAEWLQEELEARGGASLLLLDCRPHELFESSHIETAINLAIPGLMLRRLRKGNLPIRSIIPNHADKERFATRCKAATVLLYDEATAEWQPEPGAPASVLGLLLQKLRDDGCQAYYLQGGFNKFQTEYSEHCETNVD
Procedure: as §1

In the case of `O=C1/C(=C/c2ccccc2)C(NC2CCCCC2)c2ccccc21` (stereo not shown) [BCI, (E)-2-benzylidene-3-(cyclohexylamino)-2,3-dihydro-1H-inden-1-one], the “perturbation of NMR spectrum” value (MKP1^KBD) is reported as “No significant NMR peak perturbation”, the “perturbation of NMR spectrum” value (MKP2^KBD) is reported as “Peak broadening was detected” and the “perturbation of NMR spectrum” value (MKP3^CD; excess BCI, without DMSO (low-activity state)) is reported as “no detectable interaction”. The “perturbation of NMR spectrum” value (MKP3^CD; with 25% DMSO (high-activity state)) was “failed to perturb the spectrum”, the “perturbation of NMR spectrum” value (MKP4^KBD) was “No significant NMR peak perturbation” and the “perturbation of NMR spectrum” value (MKP5^KBD) was “Significant peak broadening”. The “perturbation of NMR spectrum” value (MKPX^KBD) was “Significant peak broadening”.
